Columns and labels:
[1] = anemic infants; 5 mg/kg of Fe daily for 28 d; cited from earlier work
[2] = adult men; without AA; consumed in 1 or separate whole-maize porridge meals; cited from earlier work
[3] = 9-mo-old, iron-replete children, cited from earlier work; for iron bioavailability from inhibitory WG cereal: PA:Fe 2.2:1, no added AA
[4] = Fractional iron absorption
[5] = iron-deficient infants; AA at a molar ratio of 2:1; cited from earlier work

Row | Compound | hemoglobin change [1] | iron bioavailability, times higher than FeSO4 [2] | iron bioavailability from inhibitory WG cereal [3] [%] | iron bioavailability from vegetable puree [3] [%] | bioavailability of iron when consumed in WG-oat cereal ([4]; WG-oat cereal with AA, nonsignificant difference between FeBG and Fefum) [%] | iron bioavailability in the noninhibitory reference meal ([4]; refined wheat reference meal with AA) [%] | bioavailability of iron as FeSO4 from refined wheat-based infant cereal, with dephytinization [5] [%] | bioavailability of iron as FeSO4 from refined wheat-based infant cereal, without dephytinization [5] [%]
1 | NCC(=O)[O-].NCC(=O)[O-].[Fe+2] [FeBG, ferrous bisglycinate] | significant hemoglobin increases | 4−6 times | 5.2 | 9 | – | – | – | –
2 | O=C([O-])/C=C/C(=O)[O-].[Fe+2] [Fefum, ferrous fumarate] | – | – | – | – | 9.2 | 12.1 | – | –
3 | ferrous sulfate [FeSO4] | significant hemoglobin increases | – | 3.8 | 9.9 | – | – | 8.5 | 8.7

From PMC8891185 (The Journal of Nutrition, 2021)
